Activity calls are given as the source filed them. The rule behind the calls is not given here.
How the values were obtained:
[1] = molecular target: Human immunodeficiency virus type 1 integrase (Human immunodeficiency virus 1, UniProt Q7ZJM1); experiment: Inhibition of recombinant HIV1 integrase strand transfer activity
[2] = tested on: Human immunodeficiency virus 1; experiment: Antiviral activity against HIV1 3B infected in human MT4 cells after 24 hrs by p24 ELISA; assay type: functional; conditions: Human immunodeficiency virus 1, 3B, MT4, 24 h; read-out: CIC95
MT4 = experiment: Cytotoxicity against human MT4 cells at concentrations up to 20 uM; assay type: cell-based
[3] = Clearance in rat at 2 mg/kg, iv; assay type: ADME, organism-based; parameters: dose 2 mg/kg, route intravenous; conditions: in vivo
[4] = Half life in rat at 2 mg/kg, iv; assay type: ADME, organism-based; parameters: dose 2 mg/kg, route intravenous; conditions: in vivo
[5] = tested on: Human immunodeficiency virus 1; experiment: Antiviral activity against HIV1 at concentrations upto 20 uM; assay type: functional, organism-based

Sequence of Human immunodeficiency virus type 1 integrase (Q7ZJM1 whole entry): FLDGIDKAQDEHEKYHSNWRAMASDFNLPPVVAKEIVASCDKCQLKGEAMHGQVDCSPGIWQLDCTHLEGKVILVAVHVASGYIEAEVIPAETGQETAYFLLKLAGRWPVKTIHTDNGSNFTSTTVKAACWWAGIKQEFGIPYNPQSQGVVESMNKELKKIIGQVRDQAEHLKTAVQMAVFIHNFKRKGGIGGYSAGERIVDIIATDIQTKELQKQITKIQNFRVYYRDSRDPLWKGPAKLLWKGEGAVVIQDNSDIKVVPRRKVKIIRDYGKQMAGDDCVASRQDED
Description for physchem: Dissociation constant, pKa of the compound

Structure (SMILES)	IC50 [1] [nM]	clearance [3] [mL/min/kg]	half-life [4] [min]	pKa (physchem)	IC95 [2] [nM]	Activity (MT4)	Activity [5]
CCOC(=O)c1cn2c(c1O)C(=O)N(Cc1ccc(Cl)c(Cl)c1)CC2	10	30	30	–	310	Non-toxic	–
O=C(O)c1cn2c(c1O)C(=O)N(Cc1ccccc1)CC2	80	–	–	3.8	> 20000	–	inactive
O=C1c2c(O)c3n(c2CCN1Cc1ccc(F)cc1)CCN(Cc1ccc(F)cc1)C3=O	< 10	–	–	–	70	–	–
CN1CCc2c(c(O)c3n2CCN(Cc2ccc(F)cc2)C3=O)C1=O	< 10	–	–	–	390	–	–
CN1CCn2c3c(c(O)c2C1=O)C(=O)N(Cc1ccc(F)cc1)CC3	< 10	–	–	–	160	–	–
CCOC(=O)c1cn2c(c1O)C(=O)N(Cc1cccc(Cl)c1)CC2	30	–	–	–	1250	Non-toxic	–
CCOC(=O)c1cn2c(c1O)C(=O)N(Cc1cccc(F)c1)CC2	110	–	–	–	9380	Non-toxic	–
CNC(=O)c1cn2c(c1O)C(=O)N(Cc1ccc(Cl)c(Cl)c1)CC2	40	–	–	–	1250	–	–

The next lines start with results.

IC50 [1] [nM]	clearance [3] [mL/min/kg]	half-life [4] [min]	pKa (physchem)	Structure (SMILES)	IC95 [2] [nM]	Activity (MT4)	Activity [5]
80	–	–	–	CNC(=O)c1cn2c(c1O)C(=O)N(Cc1ccc(F)cc1)CC2	10000	–	–
220	–	–	–	CCOC(=O)c1cn2c(c1O)C(=O)N(Cc1ccccc1)CC2	20000	Non-toxic	–
60	–	–	–	CNC(=O)c1cn2c(c1O)C(=O)N(Cc1ccc(Cl)cc1)CC2	2500	–	–
> 5000	–	–	–	CCOC(=O)c1cn2c(c1O)C(=O)N(Cc1ccc(F)cc1)CCC2	–	–	–
40	–	–	–	CCOC(=O)c1cn2c(c1O)C(=O)N(Cc1ccc(Cl)cc1)CC2	1020	Non-toxic	–
40	–	–	–	CCOC(=O)c1cn2c(c1O)C(=O)N(Cc1ccc(F)cc1)CC2	3230	Non-toxic	–
10	–	–	3.8	O=C(O)c1cn2c(c1O)C(=O)N(Cc1cccc(Cl)c1)CC2	> 20000	–	inactive
20	–	–	–	CCOC(=O)c1cn2c(c1O)C(=O)N(Cc1ccc(F)c(Cl)c1)CC2	940	Non-toxic	–

Source: ChEMBL document CHEMBL1137622, “8-Hydroxy-3,4-dihydropyrrolo[1,2-a]pyrazine-1(2H)-one HIV-1 integrase inhibitors” (Bioorg Med Chem Lett, 2007)
